Experimental findings from ChEMBL document CHEMBL4229385, “Study of the structure-activity relationship of polymyxin analogues” (2018) are described below.

Converted amounts (≈) assume the structure as drawn. Where a SMILES comes first, the peptide text is derived from it. Bridges are numbered along the chain shown (N, C = ends). [ ]: non-standard residue; d: D form. The star is where a group is joined. Benzoyl(4-Ph) = O=C(c1ccc(-c2ccccc2)cc1)*; Bip = N[C@@H](Cc1ccc(-c2ccccc2)cc1)C(=O)O; Octanoyl = CCCCCCCC(=O)*; Dab = NCC[C@H](N)C(=O)O

Holding throughout (format): functional
Experiment [1] relates to Pseudomonas aeruginosa. The experiment can be described thus: Antibacterial activity against amikacin/imipenem-resistant Pseudomonas aeruginosa KUB2703 by agar dilution method.
The test system of experiment [2] is Pseudomonas aeruginosa. In words: Antibacterial activity against multidrug-resistant Pseudomonas aeruginosa KUB2705 by agar dilution method. On the technique in general: Agar dilution tests growth on a series of plates holding different concentrations.
Experiment [3] has as its system Pseudomonas aeruginosa. In words: Antibacterial activity against amikacin/ciprofloxacin-resistant Pseudomonas aeruginosa KUB2704 by agar dilution method.
For experiment [4], the system named is Pseudomonas aeruginosa. The experiment can be described thus: Antibacterial activity against Pseudomonas aeruginosa PAO1 by agar dilution method.
For experiment [5], the system named is Pseudomonas aeruginosa. In words: Antibacterial activity against Pseudomonas aeruginosa E-2 by agar dilution method.

The MIC is the least concentration at which growth counts as inhibited. Regarding `CCCCCCCC(=O)N[C@@H](CCN)C(=O)N[C@H](C(=O)N[C@@H](CCN)C(=O)N[C@H]1CCNC(=O)[C@H]([C@@H](C)O)NC(=O)[C@H](CCN)NC(=O)[C@H](CCN)NC(=O)[C@H](CC(C)C)NC(=O)[C@@H](CC(C)C)NC(=O)[C@H](CCN(C)C)NC1=O)[C@@H](C)O`, the minimum inhibitory concentration (MIC) in experiment [1] is greater than 16 µg/mL; in experiment [2] it was 8 µg/mL (≈ 6.76 µM); in experiment [3], greater than 16 µg/mL; in experiment [4] it was greater than 16 µg/mL; in experiment [5], greater than 16 µg/mL.

As to `C[C@@H](O)[C@@H]1NC(=O)[C@H](CCN)NC(=O)[C@H](CCN)NC(=O)[C@H](Cc2ccc(-c3ccccc3)cc2)NC(=O)[C@@H](Cc2ccccc2)NC(=O)[C@H](CCN)NC(=O)[C@@H](NC(=O)[C@H](CCN)NC(=O)[C@@H](NC(=O)[C@H](CCN)NC(=O)c2ccccc2)[C@@H](C)O)CCNC1=O`, the MIC in experiment [1] was determined as 8 µg/mL (≈ 6.26 µM); in experiment [2] it was 8 µg/mL (≈ 6.26 µM); in experiment [3] it was 8 µg/mL (≈ 6.26 µM); in experiment [4], 8 µg/mL (≈ 6.26 µM); in experiment [5], 16 µg/mL (≈ 12.5 µM).

For `CCCCCCCC(=O)N[C@@H](CCN)C(=O)N[C@H](C(=O)N[C@@H](CCN)C(=O)N[C@H]1CCNC(=O)[C@H]([C@@H](C)O)NC(=O)[C@H](CCN)NC(=O)[C@H](CCN)NC(=O)[C@H](CC(C)C)NC(=O)[C@@H](CC(C)C)NC(=O)[C@H](CCN)NC1=O)[C@@H](C)O` (Octanoyl-[Dab]T[Dab][Dab][Dab][dL]L[Dab][Dab]T; lactam 4-C), the MIC in experiment [1] was found to be 16 µg/mL (≈ 13.8 µM); in experiment [2], 4 µg/mL (≈ 3.46 µM); in experiment [3] it was 8 µg/mL (≈ 6.92 µM); in experiment [4] it was 8 µg/mL (≈ 6.92 µM); in experiment [5], 4 µg/mL (≈ 3.46 µM).

`C[C@@H](O)[C@@H]1NC(=O)[C@H](CCN)NC(=O)[C@H](CCN)NC(=O)[C@H](Cc2ccccc2)NC(=O)[C@@H](Cc2ccc(-c3ccccc3)cc2)NC(=O)[C@H](CCN)NC(=O)[C@@H](NC(=O)[C@H](CCN)NC(=O)[C@@H](NC(=O)[C@H](CCN)NC(=O)c2ccc(-c3ccccc3)cc2)[C@@H](C)O)CCNC1=O`: the MIC in experiment [1], in experiment [2], in experiment [3], in experiment [4] and in experiment [5] was 16 µg/mL (≈ 11.8 µM) in each case.

As to `C[C@@H](O)[C@@H]1NC(=O)[C@H](CCN)NC(=O)[C@H](CCN)NC(=O)[C@H](Cc2ccccc2)NC(=O)[C@@H](Cc2ccccc2)NC(=O)[C@H](CCN)NC(=O)[C@@H](NC(=O)[C@H](CCN)NC(=O)[C@@H](NC(=O)[C@H](CCN)NC(=O)c2cccc(-c3ccccc3)c2)[C@@H](C)O)CCNC1=O`, the MIC in experiment [1] turned out to be 8 µg/mL (≈ 6.26 µM); in experiment [2], 4 µg/mL (≈ 3.13 µM); in experiment [3], 8 µg/mL (≈ 6.26 µM); in experiment [4], 8 µg/mL (≈ 6.26 µM); in experiment [5], 8 µg/mL (≈ 6.26 µM).

Regarding `CCCCCCCCC(CCCCCC)C(=O)N[C@@H](CCN)C(=O)N[C@H](C(=O)N[C@@H](CCN)C(=O)N[C@H]1CCNC(=O)[C@H]([C@@H](C)O)NC(=O)[C@H](CCN)NC(=O)[C@H](CCN)NC(=O)[C@H](CC(C)C)NC(=O)[C@@H](CC(C)C)NC(=O)[C@H](CCN)NC1=O)[C@@H](C)O` (stereo not given in full), the MIC in experiment [1] is 16 µg/mL (≈ 12.6 µM); in experiment [2] it was greater than 16 µg/mL; in experiment [3] it was greater than 16 µg/mL; in experiment [4] it was greater than 16 µg/mL; in experiment [5], 16 µg/mL (≈ 12.6 µM).

`C[C@@H](O)[C@@H]1NC(=O)[C@H](CCN)NC(=O)[C@H](CCN)NC(=O)[C@H](Cc2ccccc2)NC(=O)[C@@H](Cc2ccccc2)NC(=O)[C@H](CCN)NC(=O)[C@@H](NC(=O)[C@H](CCN)NC(=O)[C@@H](NC(=O)[C@H](CCN)NC(=O)c2ccccc2)[C@@H](C)O)CCNC1=O`: the MIC was 4 µg/mL (≈ 3.33 µM) in experiment [1]; 2 µg/mL (≈ 1.66 µM) in experiment [2]; 2 µg/mL (≈ 1.66 µM) in experiment [3]; 16 µg/mL (≈ 13.3 µM) in experiment [4]; 2 µg/mL (≈ 1.66 µM) in experiment [5].

On to `CCCCCCCC(=O)N[C@@H](CCN(C)C)C(=O)N[C@H](C(=O)N[C@@H](CCN)C(=O)N[C@H]1CCNC(=O)[C@H]([C@@H](C)O)NC(=O)[C@H](CCN)NC(=O)[C@H](CCN)NC(=O)[C@H](CC(C)C)NC(=O)[C@@H](CC(C)C)NC(=O)[C@H](CCN)NC1=O)[C@@H](C)O`, for which the MIC was greater than 16 µg/mL in experiment [1]; 4 µg/mL (≈ 3.38 µM) in experiment [2]; 8 µg/mL (≈ 6.76 µM) in experiment [3]; 8 µg/mL (≈ 6.76 µM) in experiment [4]; 4 µg/mL (≈ 3.38 µM) in experiment [5].

`C[C@@H](O)[C@@H]1NC(=O)[C@H](CCN)NC(=O)[C@H](CCN)NC(=O)[C@H](Cc2ccccc2)NC(=O)[C@@H](Cc2ccccc2)NC(=O)[C@H](CCN)NC(=O)[C@@H](NC(=O)[C@H](CCN)NC(=O)[C@@H](NC(=O)[C@H](CCN)NC(=O)c2ccc(-c3ccccc3)cc2)[C@@H](C)O)CCNC1=O`: the minimal inhibitory concentration (MIC) in experiment [1] is 8 µg/mL (≈ 6.26 µM); in experiment [2] it was 8 µg/mL (≈ 6.26 µM); in experiment [3], 8 µg/mL (≈ 6.26 µM); in experiment [4], 4 µg/mL (≈ 3.13 µM); in experiment [5] it was 8 µg/mL (≈ 6.26 µM).

On to `C[C@@H](O)[C@@H]1NC(=O)[C@H](CCN)NC(=O)[C@H](CCN)NC(=O)[C@H](Cc2ccccc2)NC(=O)[C@@H](Cc2ccc(-c3ccccc3)cc2)NC(=O)[C@H](CCN)NC(=O)[C@@H](NC(=O)[C@H](CCN)NC(=O)[C@@H](NC(=O)[C@H](CCN)NC(=O)c2ccccc2)[C@@H](C)O)CCNC1=O`, for which the MIC in experiment [1] amounted to 8 µg/mL (≈ 6.26 µM); in experiment [2], 8 µg/mL (≈ 6.26 µM); in experiment [3], 8 µg/mL (≈ 6.26 µM); in experiment [4], 4 µg/mL (≈ 3.13 µM); in experiment [5] it was 8 µg/mL (≈ 6.26 µM).

`CCCCCCCC(=O)N[C@@H](CCN)C(=O)N[C@H](C(=O)N[C@@H](CCN(C)C)C(=O)N[C@H]1CCNC(=O)[C@H]([C@@H](C)O)NC(=O)[C@H](CCN)NC(=O)[C@H](CCN)NC(=O)[C@H](CC(C)C)NC(=O)[C@@H](CC(C)C)NC(=O)[C@H](CCN)NC1=O)[C@@H](C)O`: the MIC in experiment [1] is 4 µg/mL (≈ 3.38 µM); in experiment [2] it was 4 µg/mL (≈ 3.38 µM); in experiment [3], 4 µg/mL (≈ 3.38 µM); in experiment [4], 4 µg/mL (≈ 3.38 µM); in experiment [5] it was 2 µg/mL (≈ 1.69 µM).

`CCCCCCCC(=O)N[C@@H](CCN)C(=O)N[C@H](C(=O)N[C@@H](CCN)C(=O)N[C@H]1CCNC(=O)[C@H]([C@@H](C)O)NC(=O)[C@H](CCN(C)C)NC(=O)[C@H](CCN)NC(=O)[C@H](CC(C)C)NC(=O)[C@@H](CC(C)C)NC(=O)[C@H](CCN)NC1=O)[C@@H](C)O`: the MIC in experiment [1] was greater than 16 µg/mL; in experiment [2], 16 µg/mL (≈ 13.5 µM); in experiment [3], greater than 16 µg/mL; in experiment [4], greater than 16 µg/mL; in experiment [5] it was greater than 16 µg/mL.

For the compound `CCCCCCCC(=O)N[C@@H](CCN)C(=O)N[C@H](C(=O)N[C@@H](CCN)C(=O)N[C@H]1CCNC(=O)[C@H]([C@@H](C)O)NC(=O)[C@H](CCN)NC(=O)[C@H](CCN(C)C)NC(=O)[C@H](CC(C)C)NC(=O)[C@@H](CC(C)C)NC(=O)[C@H](CCN)NC1=O)[C@@H](C)O`, the minimum inhibitory concentration (MIC) in experiment [1] stood at 4 µg/mL (≈ 3.38 µM); in experiment [2], 4 µg/mL (≈ 3.38 µM); in experiment [3], 4 µg/mL (≈ 3.38 µM); in experiment [4], 4 µg/mL (≈ 3.38 µM); in experiment [5] it was 2 µg/mL (≈ 1.69 µM).

Regarding `C[C@@H](O)[C@@H]1NC(=O)[C@H](CCN)NC(=O)[C@H](CCN)NC(=O)[C@H](Cc2ccccc2)NC(=O)[C@@H](Cc2ccc(-c3ccccc3)cc2)NC(=O)[C@H](CCN)NC(=O)[C@@H](NC(=O)[C@H](CCN)NC(=O)[C@@H](NC(=O)[C@H](CCN)NC(=O)c2cccc(-c3ccccc3)c2)[C@@H](C)O)CCNC1=O`, the MIC in experiment [1] was 16 µg/mL (≈ 11.8 µM); in experiment [2] it was 16 µg/mL (≈ 11.8 µM); in experiment [3], 16 µg/mL (≈ 11.8 µM); in experiment [4] it was 16 µg/mL (≈ 11.8 µM); in experiment [5] it was greater than 16 µg/mL.

For `CCCCC/C=C\C/C=C\CCCCCCCC(=O)N[C@@H](CCN)C(=O)N[C@H](C(=O)N[C@@H](CCN)C(=O)N[C@H]1CCNC(=O)[C@H]([C@@H](C)O)NC(=O)[C@H](CCN)NC(=O)[C@H](CCN)NC(=O)[C@H](CC(C)C)NC(=O)[C@@H](CC(C)C)NC(=O)[C@H](CCN)NC1=O)[C@@H](C)O`, the MIC was greater than 16 µg/mL in experiment [1]; greater than 16 µg/mL in experiment [2]; greater than 16 µg/mL in experiment [3]; greater than 16 µg/mL in experiment [4]; 16 µg/mL (≈ 12.4 µM) in experiment [5].

For the compound `C[C@@H](O)[C@@H]1NC(=O)[C@H](CCN)NC(=O)[C@H](CCN)NC(=O)[C@H](Cc2ccc(-c3ccccc3)cc2)NC(=O)[C@@H](Cc2ccccc2)NC(=O)[C@H](CCN)NC(=O)[C@@H](NC(=O)[C@H](CCN)NC(=O)[C@@H](NC(=O)[C@H](CCN)NC(=O)c2ccc(-c3ccccc3)cc2)[C@@H](C)O)CCNC1=O` ({Benzoyl(4-Ph)}-[Dab]T[Dab][Dab][Dab][dF][Bip][Dab][Dab]T; lactam 4-C), the MIC in experiment [1], in experiment [2], in experiment [3], in experiment [4] and in experiment [5] was 16 µg/mL (≈ 11.8 µM) each time.

For `C[C@@H](O)[C@@H]1NC(=O)[C@H](CCN)NC(=O)[C@H](CCN)NC(=O)[C@H](Cc2ccc(-c3ccccc3)cc2)NC(=O)[C@@H](Cc2ccccc2)NC(=O)[C@H](CCN)NC(=O)[C@@H](NC(=O)[C@H](CCN)NC(=O)[C@@H](NC(=O)[C@H](CCN)NC(=O)c2cccc(-c3ccccc3)c2)[C@@H](C)O)CCNC1=O`, the MIC in experiment [1] was greater than 16 µg/mL; in experiment [2] it was 16 µg/mL (≈ 11.8 µM); in experiment [3] it was greater than 16 µg/mL; in experiment [4], 16 µg/mL (≈ 11.8 µM); in experiment [5], greater than 16 µg/mL.

Regarding COLISTIN, the MIC in experiment [1] was 2 µg/mL; in experiment [2], 4 µg/mL; in experiment [3], 4 µg/mL; in experiment [4], 4 µg/mL; in experiment [5], 2 µg/mL.

Consider `CCCCCCCCC(CCCCCCCC)C(=O)N[C@@H](CCN)C(=O)N[C@H](C(=O)N[C@@H](CCN)C(=O)N[C@H]1CCNC(=O)[C@H]([C@@H](C)O)NC(=O)[C@H](CCN)NC(=O)[C@H](CCN)NC(=O)[C@H](CC(C)C)NC(=O)[C@@H](CC(C)C)NC(=O)[C@H](CCN)NC1=O)[C@@H](C)O`, for which the MIC in experiment [1], in experiment [2], in experiment [3], in experiment [4] and in experiment [5] was greater than 16 µg/mL in each case.
